Publication PMC10454396 (International Journal of Molecular Sciences, 2023)
≈ marks a conversion by molar mass, not a printed value.

Columns and labels:
zebrafish embryos = assay: Toxicity of antimicrobials on zebrafish embryos; type: in vivo, Danio rerio
Protocol: Toxicity of antibiotics was assessed by aquatic exposure and microinjection. For evaluation of the maximum tolerated concentration (MTC) by aquatic exposure, embryos were dechorionated at 30 hpf and placed in a flat-bottom 96-well plate (Sarstedt) with one embryo per well. Excess medium was removed and 150 µL of compound dilutions (in 0.3× Danieau’s, maximum of 1% DMSO) were added. For each antibiotic, a range of concentrations was investigated. Ten embryos were used per concentration and ten additional embryos incubated in fish medium without any antibiotic served as negative control. Microinjection of antibiotics into the caudal vein (CV) and the yolk sac was performed as described earlier. PBS-injected embryos served as negative control. Exposed embryos were maintained at 28 °C throughout the whole experiment. Embryos were monitored daily under a stereo microscope (Stemi 508, Zeiss) in order to record survival as well as anomalies, pigmentation, heartbeat and locomotor responses. An embryo was considered dead when no heart beat could be observed.

[1] = Phase I metabolic stability, human liver microsomes; type: in vitro ADME; details: pH 7.4
Protocol: (§1) For the evaluation of phase I metabolic stability, the compound (1 µM) was incubated with 0.5 mg/mL pooled mouse/rat liver microsomes (Xenotech, Kansas City, MO, USA) or human liver microsomes (Corning, NY, USA), 2 mM NADPH and 10 mM MgCl2 at pH 7.4 for 120 min at 37 °C. The metabolic stability of testosterone, verapamil and ketoconazole were determined in parallel to confirm the enzymatic activity of mouse/rat liver microsomes; for human liver microsomes testosterone, diclofenac and propranolol were used. The incubation was stopped after defined time points by precipitation of aliquots of the assay mixture with two volumes of ice-cold acetonitrile containing internal standard (15 nM diphenhydramine). Samples were stored on ice until the end of the incubation and precipitated protein was removed by centrifugation (15 min, 4 °C, 4000× g).

[2] = Plasma protein binding (RED), rat plasma; type: in vitro ADME; details: Wistar, pooled plasma, pH 7.4, rat plasma
Protocol: (§2) Plasma protein binding was determined using the Rapid Equilibrium Dialysis (RED) system (Thermo Fisher Scientific, Waltham, MA, USA). The compound was diluted in pooled murine (CD-1)/human or Wistar rat plasma (Neo Biotech, Nanterre, France) to 10 µM and added to the respective chamber according to the manufacturer’s protocol, followed by addition of PBS pH 7.4 to the opposite chamber. Samples were taken immediately after addition to the plate as well as after 2, 4 and 5 h by mixing 10 µL with 80 µL ice-cold acetonitrile containing 12.5 nM diphenhydramine as internal standard, followed by addition of 10 µL plasma to samples taken from PBS and vice versa. Samples were stored on ice until the end of the incubation and precipitated protein was removed by centrifugation (15 min, 4 °C, 4000× g, 2 centrifugation steps). Concentration of the remaining test compound at the different time points was analyzed by HPLC-MS/MS (TSQ Altis Plus, Thermo Fisher, Dreieich, Germany). The amount of compound bound to protein was calculated using the equation PPB [%] = 100 − 100 × (amount in buffer chamber/amount in plasma chamber).

[3] = type: in vitro ADME; details: mouse plasma
Protocol: To determine stability in plasma, a similar setup as for the determination of metabolic stability was applied using pooled mouse, human or rat plasma (Neo Biotech, Nanterre, France). Samples were taken by mixing aliquots with four volumes of ice cold acetonitrile containing internal standard (12.5 nM diphenhydramine). The plasma stability of procain, propantheline and diltiazem were determined in parallel to confirm the enzymatic activity.

CYP3A4 = details: cited from earlier work
[4] = system: Staphylococcus aureus Newman mCherry; assay: MIC, broth microdilution, mCherry-expressing S. aureus Newman; type: cell-based; details: Staphylococcus aureus, NEWMAN
Protocol: Cefazolin was obtained from Acros Organics. Ciprofloxacin hydrochloride, linezolid and vancomycin hydrochloride were obtained from Sigma-Aldrich (St. Louis, MO, USA). Tetracycline hydrochloride was obtained from Alfa Aesar. Sorangicin A was provided by HZI, Braunschweig. Stock solutions were prepared in Milli-Q water or dimethyl sulfoxide (DMSO, Sigma-Aldrich). Minimum inhibitory concentrations (MICs) were determined in cation-adjusted Mueller-Hinton broth (MHB2) using the broth microdilution method as recommended by the Clinical and Laboratory Standards Institute (CLSI). The MIC was defined as the lowest concentration of the antibiotic causing complete inhibition of visible growth of the microorganism (CLSI, 2017).
1. In vitro characterization of mCherry expressing Staphylococcus aureus Newman
1.1 Minimum inhibitory concentration
Table S1. Antibiotic susceptibility profile of Staphylococcus aureus Newman. WT: wild type. […]

[5] = Phase I metabolic stability, mouse liver microsomes; type: in vitro ADME; details: pooled liver microsomes, pH 7.4
Protocol: as §1

[6] = Plasma protein binding (RED), human plasma; type: in vitro ADME; details: pooled plasma, pH 7.4, human plasma
Protocol: as §2

[7] = In vivo pharmacokinetics in male CD-1 mice, i.v.; set-up: species or system mouse; details: 5 mg/kg i.v.
Protocol: Pharmacokinetic evaluation of sorangicin A in mice was carried out by Pharmacelsus GmbH (Saarbrücken, Germany). All mouse experiments were approved by and conducted in accordance with the regulations of the local Animal Welfare authorities. Nine adult male CD-1 mice (purchased from Janvier Labs, Le Genest-Saint-Isle, France) were used. Animals were housed in a separate temperature-controlled room (20–24 °C) and maintained in a 12 h light/12 h dark cycle. […] Retrobulbar blood samples were collected from three animals at 0.083, 0.25, 0.5, 1, 3 and 7 h after i.v. administration (two time points/ animal). At each of the designated time points 100 µL blood was collected from the eye into lithium heparin tubes. Quantification of sorangicin A in the generated plasma was performed by LC-MS/MS analysis. The pharmacokinetic analysis was performed by applying a non-compartment model using the Kinetica 5.0 software (Thermo Scientific, Waltham, MA, USA). All given parameters were obtained by trapezoid area calculation.

[8] = 10 µM, read-out: PPB (converted)

In the case of C/C(=C\[C@H](C)CCCCC(=O)O)[C@@H]1O[C@@H]2C=C[C@H]1OC(=O)\C=C/C=C\C=C\[C@H]1O[C@@H]3C[C@H]1O[C@@H](/C=C/C[C@H]1O[C@H](C[C@H](O)[C@H]1C)[C@@H](O)[C@@H](O)/C=C/CC/C=C/C2)[C@@H]3C [sorangicin A], the “reduction in embryo survival with respect to control (1% DMSO)” value (zebrafish embryos; long-term aquatic exposure, 200 µg/mL) is reported as 10%, the “tolerability of injection dose” value (zebrafish embryos; microinjection 30 mg/kg) is reported as “well-tolerated” and the well-tolerated concentration (zebrafish embryos; short- and long-term aquatic exposure) is reported as “up to 100 µg/mL”. It also gave a microsomal CLint at 1 µM [1] of 90.4 ± 16.5 µL/min/mg, a fraction unbound at 10 µM [2, 8] of 0.112 and a fraction unbound at 10 µM ([2]; read-out: free fraction) greater than 0.1. For the same compound, the “plasma concentration after 4 h incubation” value [3] was “below the limit of detection”, the CYP3A4 induction (CYP3A4) was “only moderate CYP3A4 induction” and the MIC [4] was 0.0625 µg/mL (≈ 0.0774 µM). The microsomal CLint at 1 µM [5] was 557 ± 297 µL/min/mg, the fraction unbound at 10 µM [6, 8] was 0.13 and the fraction unbound at 10 µM ([6]; read-out: free fraction) was greater than 0.1. The “cZ (last measured blood concentration)” value [7] was 7.2 ng/mL, the “time plasma levels maintained above the MIC of S. aureus” value [7] was “less than 30 min” and the AUC(0-t) ([7]; mouse, plasma, iv) was 341 ng·h/mL. The clearance ([7]; mouse, plasma, iv, read-out: CL (total clearance) (converted)) was 238 mL/min/kg, the Vd ([7]; mouse, plasma, iv, read-out: Vz) was 18 L/kg and the C0 ([7]; mouse, plasma, iv, read-out: c0 (maximum blood concentration, extrapolated time point zero)) was 1830 ng/mL. For the same compound, the half-life ([7]; mouse, plasma, iv, read-out: t1/2 (terminal phase) (converted)) was 52.2 min.
